Measurements reported in PMC7385131, “Mechanisms of activation and desensitization of full-length glycine receptor in lipid nanodiscs” (Nature Communications, 2020).

What was measured:
[1] = target: T1, zebrafish GlyRα1 (full-length glycine receptor α1) (Danio rerio, UniProt O93430); assay: cryo-EM structure in lipid nanodiscs ([…] Å); TEVC in oocytes; type: binding
T1 construct: gene glra1; homopentamer in asolectin/MSP1E3D1 nanodiscs
T1 sequence (O93430 1-444): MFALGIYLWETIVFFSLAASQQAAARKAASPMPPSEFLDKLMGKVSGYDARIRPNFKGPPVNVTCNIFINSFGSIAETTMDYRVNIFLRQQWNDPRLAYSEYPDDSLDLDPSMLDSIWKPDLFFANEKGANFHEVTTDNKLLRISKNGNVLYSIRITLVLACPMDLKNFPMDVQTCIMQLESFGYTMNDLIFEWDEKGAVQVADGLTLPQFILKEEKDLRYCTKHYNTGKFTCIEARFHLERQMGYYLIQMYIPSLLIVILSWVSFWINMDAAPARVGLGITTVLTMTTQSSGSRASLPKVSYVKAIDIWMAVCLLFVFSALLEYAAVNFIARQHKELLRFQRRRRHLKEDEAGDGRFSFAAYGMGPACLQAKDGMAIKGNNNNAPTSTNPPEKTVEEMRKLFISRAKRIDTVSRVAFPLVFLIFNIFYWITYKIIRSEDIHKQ

[2] = target: T1, zebrafish GlyRα1 (full-length glycine receptor α1); assay: cryo-EM structure in lipid nanodiscs ([…] Å) with glycine; TEVC block in oocytes; type: binding
[3] = target: the molecule itself; assay: cryo-EM structure; GlyR in asolectin nanodiscs (MSP1E3D1), ~0.1 mg/ml, buffer A (200 mM NaCl, 20 mM HEPES pH 8.0); no ligand, 5 mM glycine, 5 mM glycine + 3 mM picrotoxin, 1 mM glycine + 0.5 uM ivermectin, or 0.1 mM glycine + 30 uM ivermectin; C5 symmetry imposed

Molecule: NCC(=O)O [Gly, glycine]
- cryo-EM structure in lipid nanodiscs (3.47 Å); TEVC in oocytes [1]: 3D reconstructions reveal an additional small density in the canonical neurotransmitter-binding pocket wedged at the subunit interface in the ECD

Molecule: C=C(C)[C@@H]1[C@H]2OC(=O)[C@@H]1[C@]1(O)C[C@H]3OC34C(=O)O[C@H]2[C@@]41C.CC(C)(O)[C@@H]1[C@H]2OC(=O)[C@@H]1[C@]1(O)C[C@H]3OC34C(=O)O[C@H]2[C@@]41C (stereo partly drawn) [PTX, picrotoxin]
- cryo-EM structure in lipid nanodiscs (3.51 Å) with glycine; TEVC block in oocyte [2]: an additional density was seen in the pore at the mid-level of M2 nestled between Gly2′ and Leu9′

B1: full-length zebrafish glycine receptor α1 (GlyRα1) (receptor, UniProt O93430 25-444, looked up)
chain: ARKAASPMPPSEFLDKLMGKVSGYDARIRPNFKGPPVNVTCNIFINSFGSIAETTMDYRVNIFLRQQWNDPRLAYSEYPDDSLDLDPSMLDSIWKPDLFFANEKGANFHEVTTDNKLLRISKNGNVLYSIRITLVLACPMDLKNFPMDVQTCIMQLESFGYTMNDLIFEWDEKGAVQVADGLTLPQFILKEEKDLRYCTKHYNTGKFTCIEARFHLERQMGYYLIQMYIPSLLIVILSWVSFWINMDAAPARVGLGITTVLTMTTQSSGSRASLPKVSYVKAIDIWMAVCLLFVFSALLEYAAVNFIARQHKELLRFQRRRRHLKEDEAGDGRFSFAAYGMGPACLQAKDGMAIKGNNNNAPTSTNPPEKTVEEMRKLFISRAKRIDTVSRVAFPLVFLIFNIFYWITYKIIRSEDIHKQ
modifications: N-glycan at Asn62
notes: Glycine receptor subunit alpha-1, zebrafish, full-length gene, codon-optimized; residues numbered as in UniProt O93430; Homopentamer; the model begins at Pro31; No thrombin cleavage is told; also called full-length glycine α1 receptor; GlyR–Apo; source: Sf9 cells (baculovirus, pFastBac1), purified (TALON, Superose 6), reconstituted into asolectin nanodiscs with MSP1E3D1
- stoichiometry N [3]: 5
